Measurements as given in patent US20110280886A1, “TREATING CANCER BY MODULATING MNK” (UNIVERSITY HOSPITAL BASEL, priority 2008, published 2011).

Assays:
[1] = biological target: human Mnk2 protein (Homo sapiens, UniProt Q9HBH9); details: described in WO 02/103361; cited from earlier work
[2] = test system: BS125 cells; assay: MTT-based cell proliferation assay, BS125 cells; set-up: species or system human; details: 10 μM CGP57380 with increasing amounts of rapamycin, 5 days after treatment
Description: (§1) Cell proliferation was assayed using MTT-based method 5 days after treatment. Growth in untreated cells was used as a reference. Data shown are the mean±SD values of at least three separate experiments.
(§2) Human brain tumor cell lines; BS125 and LN319 were derived from human patients. The “BS” series were generated at the University of Basel, Switzerland while the “LN” series was generated in Lausanne, Switzerland (Ishii et al., […], Brain Pathol. 9:469-79). These cells were cultured in DMEM supplemented with 10% FCS and standard antibiotics in an incubator at 37° C. and 5% CO2 humidified atmosphere. Transfection was accomplished using Lipofectamine (Invitrogen) according to the supplier's instructions. For overexpression experiments, previously reported MNK1-Flag construct (Knauf et al., 2001, Mol Cell Biol. 21:5500-11) were used. […]
(§3) For cell proliferation MTT-based assays in 96-well plates, about ˜5000 cells were seeded 1 day before drug treatment. […] The number of viable cells was measured using CellTiter 96® AQueous Non-Radioactive Cell Proliferation Assay (Promega) used according to manufacturer's instruction. In addition, cell growth was also monitored by counting cell number with a Vi-Cell XR cell viability analyzer (Beckman Coulter). […] Cells were counted every day over a 5-day period.

[3] = test system: phosphorylated eIF4E; details: cells transfected with Mnk2 (Mnk2a or Mnk2b) or Mnk1; cited from earlier work
[4] = test system: LN319 cells; assay: MTT-based cell proliferation assay, LN319 cells; set-up: species or system human; details: 10 μM CGP57380 with increasing amounts of rapamycin, 5 days after treatment
Description: as §1, §2, §3

Sequence of human Mnk2 protein (Q9HBH9 whole entry): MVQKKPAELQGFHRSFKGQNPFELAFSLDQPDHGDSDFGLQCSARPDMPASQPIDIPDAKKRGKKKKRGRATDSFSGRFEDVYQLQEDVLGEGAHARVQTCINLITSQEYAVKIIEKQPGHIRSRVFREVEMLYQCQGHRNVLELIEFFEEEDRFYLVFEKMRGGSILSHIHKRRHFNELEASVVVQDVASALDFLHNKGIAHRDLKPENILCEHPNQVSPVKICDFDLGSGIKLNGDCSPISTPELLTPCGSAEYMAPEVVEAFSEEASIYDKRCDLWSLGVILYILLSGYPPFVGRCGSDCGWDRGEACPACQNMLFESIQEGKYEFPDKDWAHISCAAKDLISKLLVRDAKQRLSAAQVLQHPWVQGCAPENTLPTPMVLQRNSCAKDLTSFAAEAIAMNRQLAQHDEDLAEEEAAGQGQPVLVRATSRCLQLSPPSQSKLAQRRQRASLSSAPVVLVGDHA

COC(=O)c1ccc(O)cc1 [4-hydroxybenzoic acid methyl ester]
binding to human Mnk2 protein [1]: binds the human Mnk2 protein

Nc1ncnc2n[nH]c(Nc3ccc(F)cc3)c12 [CGP57380]
inhibitory effect on cell proliferation [2]: significantly increases the inhibitory effect on cell proliferation | reduction of phosphorylated eIF4E [3]: strong reduction of phosphorylated eIF4E | inhibitory effect on cell proliferation [4]: significantly increases the inhibitory effect on cell proliferation
